# Data as given in publication PMC9060465 (Proceedings of the National Academy of Sciences of the …, 2022).
# Tests used:
# [1] = target: T1, ECD of human GLP-1R (amino acids 24 to 145) (Homo sapiens, UniProt P43220); test: GLP-1R extracellular domain binding by surface plasmon resonance
# T1 construct: GLP-1R (amino acids 24 to 145); 6His; made in house; host or cells: CHO cells
# Description: DNA encoding each protein was transfected into CHO cells for expression. After expression, the proteins were purified by affinity chromatography (HIS-Trap Ni, Cytiva) followed by size exclusion chromatography using a HiLoad 26/600 Superdex 75pg column (Cytiva) with PBS buffer. […] Surface plasmon resonance measurements were made using a Biacore T200 (Cytiva) and analyzed using T200 Evaluation Software Version 3.1. Receptor ectodomain proteins were covalently immobilized (∼250 resonance units) on Sensor Chip CM4 BR100534 using the Amine coupling Immobilization Wizard in the Biacore T200 Control Software Version 2.0.2. Running buffer was HBS-EP (10 mM Hepes, 150 mM NaCl, 3 mM EDTA, 0.05% P20 [pH 7.6]; Teknova). Concentration series for each sample were made by serial dilution in running buffer. The samples were injected for 150 sec at a 30-µL/min flow rate, followed by 300 sec of dissociation. The surface was regenerated between samples with 10 mM glycine (pH 1.7).
# Fig. S10. Receptor extracellular domain (ECD) binding affinity of peptides. Purified GIPR (left column) and GLP-1R (right column) extracellular domains were immobilized to biosensor […]
# mM). […]
# (§1) and efficacy (% Top) of ligands to induce Gα s -GTPγS binding and cAMP accumulation in HEK293 cells expressing GIPR were determined. The equilibrium affinity (KD) of ligands for the immobilized ectodomain of the GIPR were quantified by surface plasmon resonance. […]
# (§2) Functional potency (EC50) and efficacy (% Top) of ligands to induce Gα s-GTPγS binding and cAMP accumulation in HEK293 cells expressing GLP-1R were determined. The equilibrium affinity (KD) of ligands for the immobilized ectodomain of the GLP-1R were quantified by surface plasmon resonance. […]
# (§3) recruitment to the GLP-1R were determined using the NanoBRET approach. The potency (EC50) and efficacy (% Top) for ligands to induce GLP-1R Internalization were determined using diffusion-enhanced resonance energy transfer. […]
# relative efficacy for NanoBRET assays. SPR data were analyzed using T200 evaluation software (Cytiva). […] ND, not determined. […]
# GLP-1R [2] = target: T2, GLP-1R (Homo sapiens, UniProt P43220); test: Ligand-induced GLP-1R internalization, SNAP-GLP-1R HEK293 cells; type: cell-based
# Target sequence in this assay (P43220 24-463): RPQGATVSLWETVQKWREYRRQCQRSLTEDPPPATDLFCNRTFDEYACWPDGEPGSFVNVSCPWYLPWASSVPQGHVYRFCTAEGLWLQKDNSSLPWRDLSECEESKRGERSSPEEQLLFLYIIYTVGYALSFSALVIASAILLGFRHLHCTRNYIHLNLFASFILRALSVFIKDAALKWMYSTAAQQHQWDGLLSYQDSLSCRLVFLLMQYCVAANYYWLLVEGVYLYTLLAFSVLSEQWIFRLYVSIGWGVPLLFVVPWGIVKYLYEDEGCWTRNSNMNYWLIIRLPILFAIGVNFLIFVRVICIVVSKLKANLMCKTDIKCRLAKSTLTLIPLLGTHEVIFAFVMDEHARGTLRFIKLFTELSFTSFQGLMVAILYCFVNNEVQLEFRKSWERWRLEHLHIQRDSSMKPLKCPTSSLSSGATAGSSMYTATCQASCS
# GLP-1R [3] = target: T2, GLP-1R; test: β-arrestin 1 recruitment to the GLP-1R, NanoBRET; type: cell-based; parameters: expressed in transfected cells
# Description: Functional potency (EC50) […]
# as §1, with “resonance. Middle Panel: The affinity (Ki) of ligands for the GLP-1R was” for “resonance.”
# as §2, §3
# Target sequence in this assay (P43220 24-463): as above
# Target sequence in this assay (P49407 whole entry partner): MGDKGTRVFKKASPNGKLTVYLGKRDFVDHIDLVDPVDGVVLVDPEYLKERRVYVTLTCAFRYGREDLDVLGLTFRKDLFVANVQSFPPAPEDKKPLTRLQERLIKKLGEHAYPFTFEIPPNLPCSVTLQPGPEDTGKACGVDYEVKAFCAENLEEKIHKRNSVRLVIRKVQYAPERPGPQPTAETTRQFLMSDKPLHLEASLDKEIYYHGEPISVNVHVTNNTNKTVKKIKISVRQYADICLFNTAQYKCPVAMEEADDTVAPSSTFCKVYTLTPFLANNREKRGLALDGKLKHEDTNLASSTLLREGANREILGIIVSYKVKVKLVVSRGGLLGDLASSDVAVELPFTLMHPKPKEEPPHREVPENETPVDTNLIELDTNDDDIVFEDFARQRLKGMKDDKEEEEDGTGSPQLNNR
# relative efficacy for NanoBRET assays. SPR data were analyzed using T200 evaluation software (Cytiva). All data are presented as geometric means with SEM and n values according to established practices. ND, not determined. NA, not applicable.
# GLP-1R [4] = target: T2, GLP-1R; test: GLP-1R Gαs [35S]GTPγS binding, GLP-1R-expressing membranes; type: biochemical; parameters: expressed in transfected cells; host or cells: HEK293
# Description: Fig. 4. […] (B) Ligand-induced GTPγS binding of Gαs was performed using the GIPR-expressing membranes. […] (C) Agonist-stimulated cAMP production was measured in human GIPR expressing HEK293 cells. […] (E) Ligand-induced GTPγS binding of Gαs was performed using the GLP-1R-expressing membranes. […] (F) Agonist-stimulated cAMP production was measured in human GLP-1R-expressing HEK293 cells. […] Data presented are representative of n ≥ 3 independent experiments. Summarized data are shown in SI Appendix, Table 2. log M; log Molar.
# We note that the albumin-binding propensity of fatty acid-modified peptides can confound a pharmacological comparison of molecules, given the common use of albumin and serum as nonspecific blocking agents in biological assays. Therefore, to obviate this, entirely albumin-free assays supplemented with bovine casein or bacitracin were used to prevent nonspecific binding ([10]). […]
# Middle Panel: The affinity (Ki) of ligands for the GLP-1R was […]
# as §2
# Target sequence in this assay (P43220 24-463): as the sequence (P43220 24-463) above
# SPR data were analyzed using T200 evaluation software (Cytiva). All data are presented as geometric means with SEM and n values according to established practices. ND, not determined. NA, not applicable.
# GLP-1R [5] = target: T2, GLP-1R; test: GRK2 recruitment to the GLP-1R, NanoBRET; type: cell-based; parameters: expressed in transfected cells; host or cells: freestyle HEK cells
# Description: After 48 h, transfected cells were incubated in phosphate-buffered saline (PBS) containing 0.1% (wt/vol) bovine casein and varying concentrations of the ligands. […]
# The potency (EC50) and efficacy (% Top) for ligands to induce GLP-1R Internalization were
# determined using diffusion-enhanced resonance energy transfer.
# relative efficacy for NanoBRET assays. SPR data were analyzed using T200 evaluation software (Cytiva). All data are presented as geometric means with SEM and n values
# according to established practices. ND, not determined. NA, not applicable.
# Target sequence in this assay (P43220 24-463): as above
# Target sequence in this assay (P25098 whole entry partner): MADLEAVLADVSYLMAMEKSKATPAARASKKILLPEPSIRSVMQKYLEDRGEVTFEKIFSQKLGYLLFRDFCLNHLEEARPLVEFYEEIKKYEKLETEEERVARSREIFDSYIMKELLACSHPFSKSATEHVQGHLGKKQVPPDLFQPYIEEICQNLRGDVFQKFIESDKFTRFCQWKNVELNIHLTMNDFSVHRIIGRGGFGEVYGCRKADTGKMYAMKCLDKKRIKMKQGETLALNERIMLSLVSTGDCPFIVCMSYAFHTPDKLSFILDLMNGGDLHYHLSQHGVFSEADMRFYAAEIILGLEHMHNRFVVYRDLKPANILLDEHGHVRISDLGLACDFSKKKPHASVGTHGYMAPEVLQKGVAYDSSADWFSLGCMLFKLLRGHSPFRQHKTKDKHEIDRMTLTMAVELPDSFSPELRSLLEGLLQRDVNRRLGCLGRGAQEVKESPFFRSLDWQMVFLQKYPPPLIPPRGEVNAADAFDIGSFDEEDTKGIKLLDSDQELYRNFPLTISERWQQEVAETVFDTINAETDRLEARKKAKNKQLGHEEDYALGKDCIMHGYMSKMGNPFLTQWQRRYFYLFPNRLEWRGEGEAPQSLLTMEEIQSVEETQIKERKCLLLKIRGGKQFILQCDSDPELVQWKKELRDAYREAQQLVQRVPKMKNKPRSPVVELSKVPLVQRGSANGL
# T1 sequence (P43220 24-145): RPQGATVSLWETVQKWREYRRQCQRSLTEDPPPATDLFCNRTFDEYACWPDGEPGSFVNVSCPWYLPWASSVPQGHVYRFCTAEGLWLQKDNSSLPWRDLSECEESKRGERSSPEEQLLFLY
smiles,measurement,setting,value
CC[C@H](C)[C@H](NC(=O)[C@H](CC(C)C)NC(=O)[C@H](Cc1c[nH]c2ccccc12)NC(=O)[C@H](CCC(N)=O)NC(=O)[C@@H](NC(=O)[C@H](Cc1ccccc1)NC(=O)[C@H](C)NC(=O)[C@H](CCCCN)NC(=O)[C@H](CCC(N)=O)NC(=O)[C@H](C)NC(=O)[C@@H](NC(=O)[C@H](CCCCN)NC(=O)[C@H](CC(=O)O)NC(=O)[C@H](CC(C)C)NC(=O)C(C)(C)NC(=O)[C@@H](NC(=O)[C@H](CO)NC(=O)[C@H](Cc1ccc(O)cc1)NC(=O)[C@H](CC(=O)O)NC(=O)[C@H](CO)NC(=O)[C@@H](NC(=O)[C@H](Cc1ccccc1)NC(=O)[C@@H](NC(=O)CNC(=O)[C@H](CCC(=O)O)NC(=O)C(C)(C)NC(=O)[C@@H](N)Cc1ccc(O)cc1)[C@@H](C)O)[C@@H](C)O)[C@@H](C)CC)[C@@H](C)CC)C(C)C)C(=O)N[C@@H](C)C(=O)NCC(=O)NCC(=O)N1CCC[C@H]1C(=O)N[C@@H](CO)C(=O)N[C@@H](CO)C(=O)NCC(=O)N[C@@H](C)C(=O)N1CCC[C@H]1C(=O)N1CCC[C@H]1C(=O)N1CCC[C@H]1C(=O)N[C@@H](CO)C(N)=O [Tzp∆C20],Kd,"[1]; GLP-1R SPR KD, equilibrium affinity, immobilized GLP-1R ectodomain, Biacore T200, HBS-EP pH 7.6, (SEM, n)",111 nM
same,koff,[1]; read-out: GLP-1R ECD kinetic constant Koff,0.0254 s⁻¹
same,EC50,"GLP-1R [2]; diffusion-enhanced resonance energy transfer, SNAP-GLP-1R HEK293 cells, 37 °C, geometric mean (SEM, n)",5.47 nM
same,GLP-1R Internalization Top,"GLP-1R [2]; efficacy (% Top), percent internalization compared to maximal GLP-1, (SEM)",90.6 (3.0) %
same,EC50,"GLP-1R [3]; NanoBRET, geometric mean (SEM, n), read-out: GLP-1R β-Arr1 Recruitment EC50",3.99 nM
same,GLP-1R β-Arr1 Recruitment Top,"GLP-1R [3]; efficacy (% Top), relative efficacy to GLP-1, (SEM)",25.9 (2.6) %
same,EC50,"GLP-1R [4]; Gαs-GTPγS binding, GLP-1R-expressing membranes, albumin-free, geometric mean (SEM, n), read-out: GLP-1R GTPγS Recruitment EC50",0.626 nM
same,GLP-1R GTPγS Recruitment Top,"GLP-1R [4]; efficacy (% Top), normalized to GLP-1(7-36), (SEM)",74.8 (9.1) %
same,EC50,"GLP-1R [5]; NanoBRET, transfected freestyle HEK cells, PBS with 0.1% casein, geometric mean (SEM, n)",1.92 nM
same,GLP-1R GRK2 Recruitment Top,"GLP-1R [5]; efficacy (% Top), relative to maximal GLP-1, (SEM)",39.4 (3.7) %
